What was measured:
Type in all cases: cell-based, human
[1] = system: MB231Br (breast cancer metastasis to brain); assay: Drug screening of MB231Br tumor foci on OBSCs; settings: MB231BR on OBSCs
[2] = system: LN229 (established GBM line); assay: Drug screening of LN229 tumor foci on OBSCs
Procedure: (§1) Tumor cells (0.17 μL, 25,000 cells) were seeded onto OBSCs 2h after slicing, with one tumor seeded in the center of each hemisphere for a total of two tumor foci per OBSC. BSM was changed 24h after slicing. Fluorescence images were taken 0 h, 24 h, and 96 h post-seeding for normalization of tumor size. Bioluminescence readouts were also taken at 0 h, 24 h, and 96 h post seeding for assessment of cell viability. Luciferin was added underneath the culture insert and allowed to incubate for 10 min before bioluminescence measurement on an AMI optical imaging system.
(§2) Tumor cells were seeded onto OBSCs 2h after slicing as described above. One day after tumor seeding, six concentrations of each drug were diluted in the media underneath each culture insert, or XRad was applied using an X-Rad 320 Precision X-ray machine (n = 4 tumor foci per concentration; n ≥ 24 tumor foci per drug per cell line). Three days after treatment, the bioluminescence of live tumor cells was measured using an AMI optical imager (Spectral Instruments) and dose-response curves were generated. Tumor survival was normalized to day one tumor fluorescence and compared to an untreated control group.
(§3) Several weighted parameters were factored into an overall drug sensitivity score.
(§4) For DSS parameters 1–6, therapeutic windows were calculated by comparing OBSC toxicity and tumor response at the doses where tumor kill passed through the DSS parameter (Table S1 and S3). For DSS parameter 7, the therapeutic window was calculated by comparing the slopes through the tumor EC50 and the OBSC tox EC50. For DSS parameter 8, the therapeutic window was calculated by comparing the areas under tumor kill and OBSC tox curves. Normalized therapeutic window ratios for DSS parameters 1–8 within each drug-tumor-OBSC interaction were calculated in the following manner: within each window, values ranged from +1 to −1, where values approaching +1 signify increasing tumor kill relative to normal tissue toxicity, and values approaching −1 indicate agents where tumors remained highly viable while toxicity to the normal OBSC tissue was elevated. DSS parameters 9–11 were determined based on the behavior of the tumor in response to the drug, as defined above.
(§5) All individually weighed parameters were added together to generate the DSS. Overall DSS from 0 to 100 signify increasing efficacy in tumor kill relative to OBSC toxicity, while scores from 0 to −100 describe scenarios in which tumors thrive more effectively than OBSCs for a given treatment. Dose-response values were calculated via linear interpolation of raw data, not from best-fit curve equations.

[3] = system: U373WT (wild-type established GBM line); assay: Drug screening of U373WT tumor foci on OBSCs
Procedure: as §1, §2, §3, §4, §5

[4] = system: U373KO (RAD18 knockout of U373WT via CRISPR); assay: Drug screening of U373KO tumor foci on OBSCs; settings: U373 KO on OBSCs
Procedure: as §1, §2, §3, §4, §5

[5] = system: GBM8 (high-passage patient-derived GBM line); assay: Drug screening of GBM8 tumor foci on OBSCs; settings: GBM8 on OBSCs
Procedure: as §1, §2, §3, §4, §5

[6] = system: MS21 (low-passage patient-derived GBM line); assay: Drug screening of MS21 tumor foci on OBSCs; settings: MS21 on OBSCs
Procedure: as §1, §2, §3, §4, §5

[7] = system: PDIPG (low-passage pediatric patient-derived line); assay: Drug screening of PDIPG tumor foci on OBSCs; settings: PDIPG on OBSCs
Procedure: as §1, §2, §3, §4, §5

[8] = system: 7 cell lines (MB231Br, LN229, U373WT, U373KO, GBM8, MS21, PDIPG); assay: Drug screening on OBSCs, summary over the panel of seven tumor lines; settings: number of lines responding
Procedure: as §1, §2, §3, §4, §5

[9] = area under the dose-response curve, trapezoidal rule
[10] = dose required to kill 10% of the tumor
[11] = dose required to kill 25% of the tumor
[12] = dose required to kill 50% of the tumor
[13] = dose required to kill 75% of the tumor
[14] = dose required to kill 90% of the tumor
[15] = dose required to kill 50% of the tumor, read-out: EC50
[16] = dose required to kill 90% of the tumor, read-out: EC90

N.N.[Cl][Pt][Cl] [Cisplatin]
Killing at highest dose [1]: 1.00E+00 fraction of tumor population killed
AUC [1, 9]: 6.20E+01
EC10 [1, 10]: 74.1 µM
EC25 [1, 11]: 87.1 µM
EC50 [1, 12]: 125 µM
EC75 [1, 13]: 188 µM
EC90 [1, 14]: 225 µM
Slope ([1]; slope through the EC50): -4.00E-03
Killing at highest dose [2]: 1.00E+00 fraction of tumor population killed
AUC [2, 9]: 7.69E+01
EC10 [2, 10]: 74.6 µM
EC25 [2, 11]: 81.3 µM
EC50 [2, 12]: 92.4 µM
EC75 [2, 13]: 136 µM
EC90 [2, 14]: 205 µM
Slope ([2]; slope through the EC50): -2.20E-03
Killing at highest dose ([3]; U373 WT on OBSCs): 1.00E+00 fraction of tumor population killed
AUC ([3]; U373 WT on OBSCs, area under the dose-response curve, trapezoidal rule): 1.33E+01
EC10 ([3]; U373 WT on OBSCs, dose required to kill 10% of the tumor): 20.3 µM
EC25 ([3]; U373 WT on OBSCs, dose required to kill 25% of the tumor): 28.4 µM
EC50 ([3]; U373 WT on OBSCs, dose required to kill 50% of the tumor): 41.9 µM
EC75 ([3]; U373 WT on OBSCs, dose required to kill 75% of the tumor): 65.2 µM
EC90 ([3]; U373 WT on OBSCs, dose required to kill 90% of the tumor): 87.9 µM
Slope ([3]; U373 WT on OBSCs, slope through the EC50): -1.85E-02
DSS (drug sensitivity score) ([3]; U373 WT, scale -100 to +100, tumor kill relative to OBSC toxicity): 62
Killing at highest dose [4]: 1.00E+00 fraction of tumor population killed
AUC [4, 9]: 1.56E+01
EC10 [4, 10]: 33.2 µM
EC25 [4, 11]: 36.5 µM
EC50 [4, 12]: 42 µM
EC75 [4, 13]: 47.6 µM
EC90 [4, 14]: 114 µM
Slope ([4]; slope through the EC50): -4.53E-02
Killing at highest dose [5]: 1.00E+00 fraction of tumor population killed
AUC [5, 9]: 1.76E-01
EC10 [5, 10]: 0.0906 µM
EC25 [5, 11]: 0.226 µM
EC50 [5, 15]: 0.453 µM
EC75 [5, 13]: 2.74 µM
EC90 [5, 16]: 4.2 µM
Slope ([5]; slope through the EC50): -1.10E+00
Killing at highest dose [6]: 9.99E-01 fraction of tumor population killed
AUC [6, 9]: 4.20E+00
EC10 [6, 10]: 4.55 µM
EC25 [6, 11]: 11.6 µM
EC50 [6, 15]: 24.7 µM
EC75 [6, 13]: 37.9 µM
EC90 [6, 16]: 45.7 µM
Slope ([6]; slope through the EC50): -1.90E-02
Killing at highest dose [7]: 1.00E+00 fraction of tumor population killed
AUC [7, 9]: 4.87E+00
EC10 [7, 10]: 3.17 µM
EC25 [7, 11]: 7.94 µM
EC50 [7, 15]: 16.8 µM
EC75 [7, 13]: 27.3 µM
EC90 [7, 16]: 41.5 µM
Slope ([7]; slope through the EC50): -2.73E-02
response / killing over the 7 cell lines [8]: robust response
